The supplement of paper PMC10307832

Tests used:
Assay in all cases: relative viability (nuclei count vs DMSO), 5 days (fraction); higher = more cells survive
BEN = test system: BEN
Method in brief: (§1)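 Dosing by pin tool came one day after lung cancer cell lines were seeded in 1536-well plates, using either one drug or a fixed anchor-drug dose plus five library-drug doses (not always all listed) in √10 steps. After 5 days, nuclei were counted on 4× images. Relative viability is treated-well nuclei count divided by vehicle-well nuclei count, and values are medians of duplicate plates.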

LK-2 = test system: LK-2
Method in brief: as §1

SW 1573 = test system: SW 1573
Method in brief: as §1

HCC-78 = test system: HCC-78
Method in brief: as §1

EKVX = test system: EKVX
Method in brief: as §1

NCI-H2087 = test system: NCI-H2087
Method in brief: as §1

HCC-827 = test system: HCC-827
Method in brief: as §1

EPLC-272H = test system: EPLC-272H
Method in brief: as §1

NCI-H358 = test system: NCI-H358
Method in brief: as §1

LU99A = test system: LU99A
Method in brief: as §1

NCI-H727 = test system: NCI-H727
Method in brief: as §1

NCI-H1944 = test system: NCI-H1944
Method in brief: as §1

LOU-NH91 = test system: LOU-NH91
Method in brief: as §1

NCI-H1792 = test system: NCI-H1792
Method in brief: as §1

EMC-BAC-2 = test system: EMC-BAC-2
Method in brief: as §1

RERF-LC-KJ = test system: RERF-LC-KJ
Method in brief: as §1

COR-L 105 = test system: COR-L 105
Method in brief: as §1

NCI-H1734 = test system: NCI-H1734
Method in brief: as §1

LCLC-97TM1 = test system: LCLC-97TM1
Method in brief: as §1

SK-MES-1 = test system: SK-MES-1
Method in brief: as §1

NCI-H2126 = test system: NCI-H2126
Method in brief: as §1

## Cc1cnc(-c2cnc(NCCNc3ccc(C#N)cn3)nc2-c2ccc(Cl)cc2Cl)[nH]1 + C[C@]1(O)C[C@@H](c2nc(-c3ccc4ccc(-c5ccccc5)nc4c3)c3c(N)nccn32)C1 [Linsitinib] (partner 1 µM)
BEN; first compound 0.08 µM
  relative viability: 0.951
BEN; first compound 0.253 µM
  relative viability: 0.843
BEN; first compound 0.8 µM
  relative viability: 0.994
BEN; first compound 2.53 µM
  relative viability: 0.928
LK-2; first compound 0.08 µM
  relative viability: 0.62
LK-2; first compound 0.253 µM
  relative viability: 0.476
LK-2; first compound 0.8 µM
  relative viability: 0.489
LK-2; first compound 2.53 µM
  relative viability: 0.789
SW 1573; first compound 0.08 µM
  relative viability: 0.945
SW 1573; first compound 0.253 µM
  relative viability: 0.744
SW 1573; first compound 0.8 µM
  relative viability: 0.845
SW 1573; first compound 2.53 µM
  relative viability: 0.695
HCC-78; first compound 0.08 µM
  relative viability: 0.632
HCC-78; first compound 0.253 µM
  relative viability: 0.437
HCC-78; first compound 0.8 µM
  relative viability: 0.459
HCC-78; first compound 2.53 µM
  relative viability: 0.435
EKVX; first compound 0.08 µM
  relative viability: 1.07
EKVX; first compound 0.253 µM
  relative viability: 0.794
EKVX; first compound 0.8 µM
  relative viability: 0.934
EKVX; first compound 2.53 µM
  relative viability: 0.926
NCI-H2087; first compound 0.08 µM
  relative viability: 0.907
NCI-H2087; first compound 0.253 µM
  relative viability: 0.978
NCI-H2087; first compound 0.8 µM
  relative viability: 0.987
NCI-H2087; first compound 2.53 µM
  relative viability: 1.02
HCC-827; first compound 0.08 µM
  relative viability: 0.963
HCC-827; first compound 0.8 µM
  relative viability: 1.01
HCC-827; first compound 2.53 µM
  relative viability: 0.955
EPLC-272H; first compound 0.08 µM
  relative viability: 1.08
EPLC-272H; first compound 0.253 µM
  relative viability: 1.18
EPLC-272H; first compound 0.8 µM
  relative viability: 1.27
EPLC-272H; first compound 2.53 µM
  relative viability: 1.13
NCI-H358; first compound 0.08 µM
  relative viability: 0.833
NCI-H358; first compound 0.253 µM
  relative viability: 0.561
NCI-H358; first compound 0.8 µM
  relative viability: 0.696
NCI-H358; first compound 2.53 µM
  relative viability: 0.618
LU99A; first compound 0.08 µM
  relative viability: 0.592
LU99A; first compound 0.253 µM
  relative viability: 0.538
LU99A; first compound 0.8 µM
  relative viability: 0.5
LU99A; first compound 2.53 µM
  relative viability: 0.569
NCI-H727; first compound 0.08 µM
  relative viability: 0.29
NCI-H727; first compound 0.253 µM
  relative viability: 0.334
NCI-H727; first compound 0.8 µM
  relative viability: 0.295
NCI-H1944; first compound 0.08 µM
  relative viability: 1.36
NCI-H1944; first compound 0.8 µM
  relative viability: 1.23
NCI-H1944; first compound 2.53 µM
  relative viability: 1.21
LOU-NH91; first compound 0.08 µM
  relative viability: 1.07
LOU-NH91; first compound 0.253 µM
  relative viability: 0.951
LOU-NH91; first compound 0.8 µM
  relative viability: 0.969
LOU-NH91; first compound 2.53 µM
  relative viability: 0.89
NCI-H1792; first compound 0.08 µM
  relative viability: 0.683
NCI-H1792; first compound 0.253 µM
  relative viability: 0.435
NCI-H1792; first compound 0.8 µM
  relative viability: 0.464
NCI-H1792; first compound 2.53 µM
  relative viability: 0.524
EMC-BAC-2; first compound 0.08 µM
  relative viability: 0.852
EMC-BAC-2; first compound 0.253 µM
  relative viability: 0.792
EMC-BAC-2; first compound 0.8 µM
  relative viability: 0.814
EMC-BAC-2; first compound 2.53 µM
  relative viability: 0.83
RERF-LC-KJ; first compound 0.08 µM
  relative viability: 0.948
RERF-LC-KJ; first compound 0.253 µM
  relative viability: 0.828
RERF-LC-KJ; first compound 0.8 µM
  relative viability: 0.843
RERF-LC-KJ; first compound 2.53 µM
  relative viability: 0.877
COR-L 105; first compound 0.08 µM
  relative viability: 1
COR-L 105; first compound 0.253 µM
  relative viability: 0.897
COR-L 105; first compound 0.8 µM
  relative viability: 0.832
COR-L 105; first compound 2.53 µM
  relative viability: 0.697
NCI-H1734; first compound 0.08 µM
  relative viability: 1.01
NCI-H1734; first compound 0.253 µM
  relative viability: 0.763
NCI-H1734; first compound 0.8 µM
  relative viability: 0.837
NCI-H1734; first compound 2.53 µM
  relative viability: 0.849
LCLC-97TM1; first compound 0.08 µM
  relative viability: 0.206
LCLC-97TM1; first compound 0.253 µM
  relative viability: 0.177
LCLC-97TM1; first compound 0.8 µM
  relative viability: 0.172
LCLC-97TM1; first compound 2.53 µM
  relative viability: 0.208
SK-MES-1; first compound 0.08 µM
  relative viability: 1.2
SK-MES-1; first compound 0.253 µM
  relative viability: 1.03
SK-MES-1; first compound 0.8 µM
  relative viability: 1.05
SK-MES-1; first compound 2.53 µM
  relative viability: 1.04
NCI-H2126; first compound 0.08 µM
  relative viability: 0.739
NCI-H2126; first compound 0.253 µM
  relative viability: 0.726
NCI-H2126; first compound 0.8 µM
  relative viability: 0.753
NCI-H2126; first compound 2.53 µM
  relative viability: 0.704
